# In ChEMBL document CHEMBL6127056, “Novel mechanistic insights - A brand new Era for anti-HBV drugs” (Eur J Med Chem, 2024):
# Residues, ends and D or L forms follow the SMILES beside them.
# How the values were obtained:
# Hepatitis B virus [1] = assay: Antiviral activity against HBV infected in human Primary hepatocyte assessed as reduction in HBV replication; assay type: functional, organism-based
# [2] = target: T1, Hepatic sodium/bile acid cotransporter (Homo sapiens, UniProt Q14973); assay: Inhibition of NTCP (unknown origin)
# T1 sequence (Q14973 whole entry): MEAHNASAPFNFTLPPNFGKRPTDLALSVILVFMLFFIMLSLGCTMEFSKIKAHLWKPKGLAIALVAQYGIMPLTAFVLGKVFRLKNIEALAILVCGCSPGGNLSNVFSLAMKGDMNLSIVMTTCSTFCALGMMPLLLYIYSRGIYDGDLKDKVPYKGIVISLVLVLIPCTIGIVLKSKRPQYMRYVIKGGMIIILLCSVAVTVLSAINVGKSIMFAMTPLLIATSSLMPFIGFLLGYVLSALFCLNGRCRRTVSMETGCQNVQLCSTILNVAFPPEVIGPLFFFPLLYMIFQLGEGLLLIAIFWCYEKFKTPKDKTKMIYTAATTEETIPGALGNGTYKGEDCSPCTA
# Hepatitis B virus [3] = assay: Antiviral activity against HBV infected in human HepG2-hNTCP cells assessed as reduction in HBV DNA replication by qRT-PCR analysis; assay type: functional, organism-based
# Hepatitis B virus [4] = assay: Antiviral activity against HBV infected in human HepG2.2.15 cells; assay type: functional, organism-based
# Hepatitis B virus [5] = assay: Antiviral activity against Hepatitis B virus assessed as inhibition of HBV DNA replication; assay type: functional, organism-based
# [6] = target: Triosephosphate isomerase (Homo sapiens, UniProt P60174); assay: Inhibition of TPI1 (unknown origin)
# Triosephosphate isomerase, sequence (P60174 whole entry): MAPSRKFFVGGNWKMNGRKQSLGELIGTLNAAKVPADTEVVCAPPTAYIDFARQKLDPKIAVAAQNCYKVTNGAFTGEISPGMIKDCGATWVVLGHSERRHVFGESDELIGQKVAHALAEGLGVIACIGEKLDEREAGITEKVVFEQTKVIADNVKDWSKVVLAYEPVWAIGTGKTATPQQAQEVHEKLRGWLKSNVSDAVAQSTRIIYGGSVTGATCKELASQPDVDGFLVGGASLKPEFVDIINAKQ
# Hepatitis B virus [7] = assay: Antiviral activity against HBV infected in human HepG2.2.15 cells assessed as reduction in viral DNA levels incubated for 6 days by PCR analysis; assay type: functional, organism-based; details: HepG2.2.15, 144 h
# [8] = Inhibition of HBV RNA polymerase; set-up: species or system Hepatitis B virus
# Hepatitis B virus [9] = assay: Antiviral activity against HBV infected in human HepDES19 cells assessed as inhibition of extracellular HBV DNA by qPCR analysis; assay type: functional, organism-based
# [10] = target: T1, Hepatic sodium/bile acid cotransporter; assay: Inhibition of NTCP (unknown origin) stably transfected in HEK293 cells; assay type: cell-based
# Hepatitis B virus [11] = assay: Antiviral activity against Hepatitis B virus ayw1 infected in human HepG2 2.2.15 cells assessed as reduction in viral DNA replication incubated for 6 days by qPCR analysis; assay type: functional, organism-based; details: ayw1, HepG2 2.2.15, 144 h
# Hepatitis B virus [12] = assay: Antiviral activity against wild type HBV infected in HepG2.2.15 cells assessed as reduction in viral replication; assay type: functional, organism-based
# SRSF protein kinase 1 = SRSF protein kinase 1 (Homo sapiens, UniProt Q96SB4); assay: Inhibition of SRPK-1 (unknown origin)
# SRSF protein kinase 1, sequence (Q96SB4 whole entry): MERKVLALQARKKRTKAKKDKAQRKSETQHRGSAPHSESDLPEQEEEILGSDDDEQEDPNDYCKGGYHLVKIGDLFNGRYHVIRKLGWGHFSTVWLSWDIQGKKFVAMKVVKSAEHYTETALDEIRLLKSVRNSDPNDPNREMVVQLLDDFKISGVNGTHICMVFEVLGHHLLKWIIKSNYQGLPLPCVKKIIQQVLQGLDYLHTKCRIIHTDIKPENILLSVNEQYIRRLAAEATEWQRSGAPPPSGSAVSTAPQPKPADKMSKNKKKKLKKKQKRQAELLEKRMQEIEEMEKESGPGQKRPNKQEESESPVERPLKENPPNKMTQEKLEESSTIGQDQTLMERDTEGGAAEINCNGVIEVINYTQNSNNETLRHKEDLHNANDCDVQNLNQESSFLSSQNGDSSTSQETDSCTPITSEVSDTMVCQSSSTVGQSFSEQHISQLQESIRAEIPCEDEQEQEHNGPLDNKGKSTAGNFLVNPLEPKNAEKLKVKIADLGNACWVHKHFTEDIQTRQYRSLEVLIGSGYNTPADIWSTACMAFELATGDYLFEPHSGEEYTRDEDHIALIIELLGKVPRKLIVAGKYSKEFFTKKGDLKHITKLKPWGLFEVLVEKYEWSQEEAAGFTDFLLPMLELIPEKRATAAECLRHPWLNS
# Hepatitis B virus [13] = assay: Antiviral activity against HBV infected in human HepG2.117 cells assessed as reduction in intracellular DNA level by RT-qPCR analysis; assay type: functional, organism-based
# [14] = target: Lysine-specific demethylase 5B (Homo sapiens, UniProt Q9UGL1); assay: Inhibition of KDM5B (unknown origin)
# Lysine-specific demethylase 5B, sequence (Q9UGL1 whole entry): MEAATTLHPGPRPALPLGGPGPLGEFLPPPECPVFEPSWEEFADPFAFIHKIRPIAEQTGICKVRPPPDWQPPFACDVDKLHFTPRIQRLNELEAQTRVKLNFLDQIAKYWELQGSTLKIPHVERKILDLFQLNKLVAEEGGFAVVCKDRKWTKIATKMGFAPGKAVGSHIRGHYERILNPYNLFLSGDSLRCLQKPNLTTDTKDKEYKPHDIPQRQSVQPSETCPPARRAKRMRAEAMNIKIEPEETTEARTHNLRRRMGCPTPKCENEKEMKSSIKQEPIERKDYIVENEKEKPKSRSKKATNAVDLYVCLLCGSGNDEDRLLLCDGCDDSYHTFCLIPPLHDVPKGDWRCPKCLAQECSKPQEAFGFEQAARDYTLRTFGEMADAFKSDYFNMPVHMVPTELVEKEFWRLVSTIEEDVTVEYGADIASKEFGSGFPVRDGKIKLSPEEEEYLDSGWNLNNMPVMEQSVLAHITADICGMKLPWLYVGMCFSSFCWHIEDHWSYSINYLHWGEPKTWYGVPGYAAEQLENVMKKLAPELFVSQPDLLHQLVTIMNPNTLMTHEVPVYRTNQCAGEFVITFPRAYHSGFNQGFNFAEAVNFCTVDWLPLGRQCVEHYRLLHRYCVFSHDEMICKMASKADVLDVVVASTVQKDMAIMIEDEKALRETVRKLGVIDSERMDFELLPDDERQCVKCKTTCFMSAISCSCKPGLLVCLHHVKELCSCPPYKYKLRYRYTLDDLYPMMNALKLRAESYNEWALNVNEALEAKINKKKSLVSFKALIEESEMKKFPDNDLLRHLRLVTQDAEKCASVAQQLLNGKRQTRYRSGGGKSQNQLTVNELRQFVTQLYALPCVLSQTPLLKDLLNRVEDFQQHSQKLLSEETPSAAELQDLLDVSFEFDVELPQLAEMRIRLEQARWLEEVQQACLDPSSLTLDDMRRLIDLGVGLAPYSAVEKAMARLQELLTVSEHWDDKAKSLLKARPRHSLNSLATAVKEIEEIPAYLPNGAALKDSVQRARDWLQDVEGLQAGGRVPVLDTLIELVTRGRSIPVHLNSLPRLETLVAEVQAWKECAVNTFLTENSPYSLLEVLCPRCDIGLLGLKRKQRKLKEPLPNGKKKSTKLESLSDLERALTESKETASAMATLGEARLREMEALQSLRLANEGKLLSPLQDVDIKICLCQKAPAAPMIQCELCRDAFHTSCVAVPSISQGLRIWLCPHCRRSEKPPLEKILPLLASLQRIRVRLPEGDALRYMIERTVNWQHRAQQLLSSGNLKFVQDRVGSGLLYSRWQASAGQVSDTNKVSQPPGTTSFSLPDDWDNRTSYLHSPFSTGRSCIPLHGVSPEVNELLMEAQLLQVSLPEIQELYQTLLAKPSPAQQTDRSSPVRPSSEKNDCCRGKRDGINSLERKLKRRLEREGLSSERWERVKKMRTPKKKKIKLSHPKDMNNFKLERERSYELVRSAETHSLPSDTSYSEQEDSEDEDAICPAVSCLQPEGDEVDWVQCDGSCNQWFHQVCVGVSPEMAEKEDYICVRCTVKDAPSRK
# Hepatitis B virus [15] = assay: Antiviral activity against HBV infected in human HepAD38 cells assessed as inhibition of viral replication; assay type: functional, organism-based
# Hepatitis B virus [16] = assay: Antiviral activity against HBV infected in human HePAD38 cells assessed as reduction in viral replication by qPCR analysis; assay type: functional, organism-based
# Hepatitis B virus [17] = assay: Antiviral activity against HBV infected in human HepG2-NTCP12 cells assessed as inhibition of viral replication; assay type: functional, organism-based
# Hepatitis B virus [18] = assay: Antiviral activity against HBV infected in human Primary hepatocytes assessed as reduction in HBV DNA level measured after 16 days by ELISA; details: Hepatocyte, 384 h
# [19] = target: Human immunodeficiency virus type 1 reverse transcriptase (Human immunodeficiency virus 1, UniProt Q72547); assay: Inhibition of HIV-1 reverse transcriptase
# HepG2 2.2.15 = assay: Cytotoxicity against human HepG2.2.15 cells assessed as reduction in cell viability by CellTiter-Blue reagent based analysis; assay type: functional
# [20] = target: T2, NAD-dependent protein deacetylase sirtuin-2 (Homo sapiens, UniProt Q8IXJ6); assay: Inhibition of SIRT2 (unknown origin)
# T2 sequence (Q8IXJ6 whole entry): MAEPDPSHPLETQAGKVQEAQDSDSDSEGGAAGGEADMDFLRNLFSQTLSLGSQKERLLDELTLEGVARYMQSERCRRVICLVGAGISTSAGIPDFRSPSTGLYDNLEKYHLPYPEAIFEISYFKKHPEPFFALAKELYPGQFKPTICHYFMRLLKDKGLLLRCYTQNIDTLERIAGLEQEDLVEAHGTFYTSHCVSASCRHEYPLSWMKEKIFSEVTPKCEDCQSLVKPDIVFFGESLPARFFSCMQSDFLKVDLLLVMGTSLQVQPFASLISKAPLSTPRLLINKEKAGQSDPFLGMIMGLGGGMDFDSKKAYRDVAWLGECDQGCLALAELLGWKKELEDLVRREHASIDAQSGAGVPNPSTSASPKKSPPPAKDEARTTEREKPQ
structure (smiles),measurement,setting,value
Cn1cnc(COC(=O)N[C@H]2CCc3c(C(=O)Nc4ccc(F)c(Cl)c4)ccc(F)c32)n1,EC50,Hepatitis B virus [1],630 nM
COc1cc([C@H]2c3cc4c(cc3[C@H](n3cc(CO[C@H]5CC[C@]6(C)[C@H]7CC=C8[C@@H]9CC(C)(C)CC[C@]9(C(=O)O)CC[C@@]8(C)[C@]7(C)CC[C@H]6C5(C)C)nn3)[C@H]3COC(=O)[C@H]23)OCO4)cc(OC)c1OC,IC50,[2],70 nM
COc1cc2c(O[C@@H]3OC[C@](O)(CO[C@@H]4OC[C@@H](O)[C@H](O)[C@H]4O)[C@H]3O[C@@H]3OC[C@H](O)[C@H](O)[C@H]3O)c3c(c(-c4ccc5c(c4)OCO5)c2cc1OC)C(=O)OC3 [CILIATOSIDE A],EC50,Hepatitis B virus [1],3360 nM
same,EC50,Hepatitis B virus [3],5.13 µM
CCOCCOC(=O)C1=C(C)NC(c2ncc(F)cc2F)=NC1c1ccc(F)cc1C (stereo not given),EC50,Hepatitis B virus [4],6.24 µM
NCCCC(=O)NCc1nc(-c2cccc(F)c2)c(-c2ccccn2)[nH]1,EC50,Hepatitis B virus [5],> 10 µM
CCCCCCCc1cc(OC(=O)c2c(CCCCCCC)cc(O)cc2O[C@H]2O[C@@H](CO)[C@@H](O)[C@@H](O)[C@@H]2O)cc(O)c1C(=O)O,IC50,[6],2200 nM
O=C(Nc1ccc(F)c(Cl)c1)c1cc(S(=O)(=O)NC2CCCC2)cc2c1OCCO2,EC50,Hepatitis B virus [7],500 nM
CCOC(=O)c1cc(-c2cc(=O)oc3ccccc23)oc1C,IC50,[8],16.7 µM
CCOC(=O)C1=C(CN2CCN(C(C(=O)O)c3ccoc3)CC2)NC(c2nccs2)=NC1c1ccc(F)cc1Br (stereo not given),EC50,Hepatitis B virus [9],> 10000 nM
"CCC[C@@H]1NC(=O)[C@H](CC(C)C)N(C)C(=O)[C@H](CC(C)C)N(C)C(=O)CN(CCO)C(=O)[C@H](CC(C)C)N(C)C(=O)[C@@H](C)NC(=O)[C@H](CCC(N)=O)NC(=O)[C@H](CC(C)C)N(C)C(=O)[C@H](C(C)C)NC(=O)[C@H](CC(C)C)N(C)C(=O)CN(C)C1=O (HELM PEPTIDE1{[meL].[meL].[Nva].[Sar].[meL].V.[meL].Q.[dA].[meL].[O=C(CN(CCO)[*:1])[*:2]]}$PEPTIDE1,PEPTIDE1,1:R1-11:R2$$$V2.0)",IC50,[10],360 nM
Cc1nc(-c2c(-c3ccccc3)ncn2Cc2cccc3[nH]ccc23)c[nH]1,EC50,Hepatitis B virus [5],10 µM
CCOC(=O)C1=C(CN2CCN(C(C(=O)O)c3cccc([N+](=O)[O-])c3)CC2)NC(c2nccs2)=NC1c1ccc(F)cc1Br (stereo not given),EC50,Hepatitis B virus [9],24 nM
COC(=O)C1=C(C)NC(c2ncc(F)cc2F)=N[C@H]1c1ccc(F)cc1Cl,EC50,Hepatitis B virus [11],23 nM
C/C(=N\c1cccc(F)c1)c1c(C)cc(=O)n(O)c1O,EC50,Hepatitis B virus [5],2.1 µM
O=C(OCc1ccc(-c2cnc3ccccc3n2)cc1)c1cccs1,EC50,Hepatitis B virus [5],> 10 µM
COc1ccc(-c2cc(=O)c3c(O)cc(O)c(-c4cc(-c5cc(=O)c6c(O)cc(OC)cc6o5)ccc4OC)c3o2)cc1 [SCIADOPITISIN],EC50,Hepatitis B virus [4],56.4 µg/mL
CNC(=O)C1(NC(=O)C(=O)c2c(C)c(C(=O)Nc3ccc(F)c(F)c3)n3c2CCC3)CC(F)(F)C1,EC50,Hepatitis B virus [1],80 nM
COc1cc(C[C@@H]2CO[C@@H](c3ccc(O)c(OC)c3)[C@@H]2CO)ccc1O [(-)-Lariciresinol],EC50,Hepatitis B virus [12],42.6 µM
O=c1ccc2cc3ccoc3cc2o1 [PSORALEN],EC50,Hepatitis B virus [12],63.7 µM
O=C(Nc1ccc2c(=O)c3cccc(F)c3oc2c1)c1ccccc1,IC50,[8],1.89 µM
CCc1cc2c(cc1-c1cccc(S(=O)(=O)F)c1)C(C)(C)c1[nH]c3cc(C#N)ccc3c1C2=O,IC50,SRSF protein kinase 1,9.4 µM
CC(C)OC(=O)[C@H](C)NP(=O)(OC[C@@]1(F)CO[C@@H](n2cnc3c(N)ncnc32)[C@@H]1CO)Oc1ccccc1 (stereo not given in full),EC50,Hepatitis B virus [13],80 nM
CCN(CCN(C)C)C(=O)CNCc1cc(C(=O)O)ccn1,IC50,[14],380 nM
CCOC(=O)c1cc(-c2cc(C(=O)OCC)c3ccccc3n2)nc2ccccc12,EC50,Hepatitis B virus [5],> 10 µM
CCOC(=O)C1=C(CN2CCOCC2)NC(c2nccs2)=NC1c1ccc(F)cc1Br (stereo not given),EC50,Hepatitis B virus [9],100 nM
C=C(C)[C@@H]1CC[C@]2(C(=O)NCc3cn([C@H]4c5cc6c(cc5[C@H](c5cc(OC)c(OC)c(OC)c5)[C@H]5C(=O)OC[C@@H]54)OCO6)nn3)CC[C@@]3(C)[C@]4(C)CC[C@H]5C(C)(C)[C@@H](O)CC[C@]5(C)[C@H]4CC[C@]3(C)[C@@H]12,IC50,[2],790 nM
C=C(c1ccc(C(=O)O)cc1)c1cc2c(cc1C)C(C)(C)CCC2(C)C [BEXAROTENE],IC50,[6],1890 nM
C[C@]12CCCC[C@@H]1CC[C@@H]1[C@@H]2CC[C@]2(C)[C@@H]([C@H](O)CCc3ccc(F)cc3)CC[C@@H]12,IC50,[6],10600 nM
CCOC(=O)c1ccnc(CNCC(=O)N(CC)CCN(C)C)c1,EC50,Hepatitis B virus [15],0.034 µM
CN1[C@H](C(=O)Nc2ccc(F)c(Cl)c2)C[C@H](c2ncc(-c3cn(C)cn3)s2)NS1(=O)=O,EC50,Hepatitis B virus [16],22 nM
same,EC50,Hepatitis B virus [17],27 nM
same,EC50,Hepatitis B virus [18],41 nM
CC[C@H](C)C[C@H](C)C(=O)O[C@]1(C)C(=O)c2c(cc(O)c3c2C[C@@H](O)C[C@H]3C)[C@@](C)(O)C1=O,IC50,[6],610 nM
CCCCCCCc1cc(OC(=O)c2c(CCCCCCC)cc(O)cc2O[C@H]2O[C@@H](CO)[C@H](O)[C@@H](O)[C@@H]2O)cc(O)c1C(=O)O,IC50,[6],1700 nM
Nc1ncnc2c1ncn2[C@@H]1OC[C@](F)(CO)[C@H]1CO,EC50,Hepatitis B virus [13],> 10000 nM
O=C(Nc1ccc(F)c(C(F)F)c1)C1c2ccccc2NCC1CN1CCC(F)(F)CC1 (stereo not given),EC50,Hepatitis B virus [7],100 nM
O=c1cc(-c2ccccc2)oc2cc(O)cc(O)c12 [CHRYSIN],EC50,Hepatitis B virus [1],22500 nM
O=c1cc(-c2ccc(O)c(-c3c(O)cc(O)c4c(=O)cc(-c5ccc(O)cc5)oc34)c2)oc2cc(O)cc(O)c12 [AMENTOFLAVONE],EC50,Hepatitis B virus [4],48.6 µg/mL
Nc1ncnc2c1ncn2[C@@H]1OC[C@](F)(COP(=O)(O)OP(=O)(O)OP(=O)(O)O)[C@H]1CO,IC50,[19],320 nM
Cc1cc(/N=N/c2ccc(S(=O)(=O)Nc3ccccn3)cc2)c(N)cc1O,EC50,Hepatitis B virus [15],15.6 µM
N#Cc1ccc(Cn2nc(-c3ccc(C(F)(F)F)nc3F)c3ccccc3c2=O)cc1,IC50,HepG2 2.2.15,200 nM
CCn1ccnc1-c1c(-c2ccccc2)ncn1CCCc1cccnc1,EC50,Hepatitis B virus [5],10 µM
Cc1cc(N)c(S(N)(=O)=O)cc1C(=O)Nc1cc(F)c(F)c(F)c1,EC50,Hepatitis B virus [7],60 nM
C[C@]12CC[C@@H]3c4ccc(OC(=O)c5ccccc5)cc4CC[C@H]3[C@@H]1CC[C@@H]2O [ESTRADIOL BENZOATE],IC50,[8],279 µM
O=C(NCc1ccc(-c2cccnc2)nc1)c1ccc2nccnc2c1,EC50,Hepatitis B virus [5],> 10 µM
Cc1ccc2[nH]c(CCNc3nccc(-c4ccccn4)n3)nc2c1C,EC50,Hepatitis B virus [5],> 10 µM
O=C(O)C1CC(OCCOc2ccc(-c3cc(=O)c4cccc(Cl)c4o3)cc2)C1 (stereo not given),EC50,Hepatitis B virus [1],200 nM
Cc1cn(-c2ccc3c(c2)CN(c2ncc(Cc4ccc(-n5cccn5)cc4)s2)CC3)c(C)n1,IC50,[20],< 620 nM
CCCCCCCCCc1cc(OC(=O)c2c(CCCCCCCCC)cc(O)cc2O[C@@H]2O[C@H](CO)[C@@H](O)[C@H](O)[C@H]2O)cc(O)c1C(=O)O,IC50,[6],1100 nM
